# Laboratory results reported in patent US20250188194A1, “Method of treatment” (Nucleus Therapeutics Pty Ltd, priority 2021, published 2025).
# “Also recorded” adds a separate entry of the source.
# Tested on: differentiated PLB-985 cells
# Test: Quantifying DNA released (adherent NET-DNA) after PMA stimulation by spectrophotometry
# Format: cell-based, human
# Settings: 1, 10 or 50 μM GSK484 one hour prior to PMA; N=2
# Experimental: The results of the DAPI and SYTOX™ Green staining studies in FIG. 2C, 2D are consistent with DX1-mediated inhibition of chromatin decondensation and DNA release by differentiated PLB-985 cells. To further probe this effect, DNA-protein release was measured by differentiated PLB-985 cells after PMA stimulation by resuspending and quantifying DNA-protein complexes adherent to wells by spectrophotometry using a previously described protocol for isolation and quantification of NET-DNA in cell culture. This assay is based on the concept that intact cells for the most part remain in suspension, while DNA-protein complexes released in NETs are at least partially adhered to wells. This distinction allows for separation of intact cells from adherent NET-DNA by aspiration of the cell culture supernatants, followed by resuspension of adherent DNA-protein complexes and quantification by spectrophotometry.
# Next, the ability of this assay to detect the effect of a known NETosis inhibitor on DNA release by differentiated PLB-985 cells stimulated by PMA was verified. […] Differentiated PLB-985 cells were treated with 0-50 μM of GSK484 for one hour prior to stimulation with PMA, followed by quantification of adherent DNA by spectrophotometry. […]
compound,measurement,value
COc1cc(C(=O)N2CC[C@@H](O)[C@@H](N)C2)cc2nc(-c3cc4ccccc4n3CC3CC3)n(C)c12 [GSK484],DNA release in response to PMA (adherent DNA by spectrophotometry),reduced extracellular DNA in a dose-dependent manner; also recorded: dose-dependent inhibition of DNA release
